Measured values reported in patent publication US6426329B1, “Immunosuppressant activity of insulin-like growth factor I (IGF-I)” (Fujisawa Pharmaceutical Co., Ltd., priority 1997, dated 2002).

Key:
[1] = system: Bile secretions; assay: Anticholeretic action of CsA and antagonizing action of IGF-I (bile secretion in bile duct-cannulated anesthetized rats); assay type: in vivo, rat
Protocol: (§1) Using male SD rats (7 weeks old) under urethane anesthesia (1.2 g/5 ml/kg), a midline incision was made in the abdominal region. Ligation was performed at the lower part of the common bile duct and a polyethylene tube (PE10, Intramedics) was inserted from above and ligated in position. The bile was thus withdrawn extracorporeally and pooled. The rat was kept warm on a hot plate at 37° C. and the volume of the bile withdrawn was measured at 30-min intervals. […] (250 mg/5 ml vial) was diluted with saline. Rats in the control group received saline both intravenously and subcutaneously. The bile was collected up to 180 min after drug administration. As the baseline secretions, the average of the values at 2 points of time immediately preceding drug administration was used.

[2] = system: Bile secretions; assay: Choleretic action of FK506 and synergistic action of IGF-I (bile secretion in bile duct-cannulated anesthetized rats); assay type: in vivo, rat; settings: for effect on choleresis (in words): summary of Table 2 data, IGF-I in combination with FK506
Protocol: as §1, with “(6” for “(7”, “withdrawn-was” for “withdrawn was”, “As to FK506, FK506 Inj. (1P mg/1” for “(250 mg/5”, “used.” for “diluted with saline.”, “180min” for “180 min”, “medication.” for “drug administration.”

[3] = system: IGF-I; assay: IGF-I producing action of FK506 (liver and blood IGF-I by rat IGF-I RIA kit after 7 days oral dosing); assay type: in vivo; settings: male SD rats; for increase of blood concentration of IGF-I / increase of concentration of IGF-I in the liver: 0.5 hour after final dose
Protocol: Male SD rats aged 6 weeks were orally dosed with FK506 once daily for 7 consecutive days, and at 0.5 hour following the final dose, the liver and blood were isolated. The blood IGF-I concentration was measured by acid-ethanol extraction and subsequent assay with a rat IGF-I RIA kit (DSL). The hepatic IGF-I level was measured by acetic acid extraction and subsequent assay with the rat IGF-I RIA kit. Five rats per group were used.

[4] = Before administration (baseline)
[5] = Before administration (baseline), Mean ± S.E.
[6] = FK506 1 mg/kg orally once daily for 7 days
[7] = FK506 10 mg/kg orally once daily for 7 days

Compound: IGF-I: insulin-like growth factor I (IGF-I), dissolved in saline, given subcutaneously
- Bile secretions, % of preadministration baseline ([1]; 0˜30 min after administration, CsA 10 mg/kg i.v., IGF-I 10 mg/kg s.c.): (109) %
- Bile secretions, % of preadministration baseline ([1]; 30˜60 min after administration, CsA 10 mg/kg i.v., IGF-I 10 mg/kg s.c.): (121) %
- Bile secretions, % of preadministration baseline ([1]; 60˜90 min after administration, CsA 10 mg/kg i.v., IGF-I 10 mg/kg s.c.): (124) %
- Bile secretions, % of preadministration baseline ([1]; 90˜120 min after administration, CsA 10 mg/kg i.v., IGF-I 10 mg/kg s.c.): (118) %
- Bile secretions, % of preadministration baseline ([1]; 120˜150 min after administration, CsA 10 mg/kg i.v., IGF-I 10 mg/kg s.c.): (121) %
- Bile secretions, % of preadministration baseline ([1]; 150˜180 min after administration, CsA 10 mg/kg i.v., IGF-I 10 mg/kg s.c.): (118) %
- Bile secretions, % of preadministration baseline [1, 4]: (100) %
- Bile secretions [1, 5]: 0.33 ± 0.03 ml/30 min
- effect on choleresis (in words) ([1]; summary of Table 1 data, IGF-I in combination with CsA): enhances choleresis
- Bile secretions, % of preadministration baseline ([2]; 0˜30 min after administration, 10 mg/kg i.v. immunosuppressant, IGF-I 10 mg/kg s.c.): (109) %
- Bile secretions, % of preadministration baseline ([2]; 30˜60 min after administration, 10 mg/kg i.v. immunosuppressant, IGF-I 10 mg/kg s.c.): (117) %
- Bile secretions, % of preadministration baseline ([2]; 60˜90 min after administration, 10 mg/kg i.v. immunosuppressant, IGF-I 10 mg/kg s.c.): (120) %
- Bile secretions, % of preadministration baseline ([2]; 90˜120 min after administration, 10 mg/kg i.v. immunosuppressant, IGF-I 10 mg/kg s.c.): (120) %
- Bile secretions, % of preadministration baseline ([2]; 120˜150 min after administration, 10 mg/kg i.v. immunosuppressant, IGF-I 10 mg/kg s.c.): (123) %
- Bile secretions, % of preadministration baseline ([2]; 150˜180 min after administration, 10 mg/kg i.v. immunosuppressant, IGF-I 10 mg/kg s.c.): (114) %
- Bile secretions, % of preadministration baseline [2, 4]: (100) %
- Bile secretions [2, 5]: 0.35 ± 0.01 ml/30 min
- effect on choleresis (in words) [2]: enhances choleresis

Compound: C=CC[C@@H]1/C=C(\C)C[C@H](C)C[C@H](OC)[C@H]2O[C@@](O)(C(=O)C(=O)N3CCCC[C@H]3C(=O)O[C@H](/C(C)=C/[C@@H]3CC[C@@H](O)[C@H](OC)C3)[C@H](C)[C@@H](O)CC1=O)[C@H](C)C[C@@H]2OC [FK506, 17-allyl-1,14-dihydroxy-12-[2-(4-hydroxy-3-methoxycyclohexyl)-1-methylvinyl]-23,25-dimethoxy-13,19,21,27-tetramethyl-11,28-dioxa-4-azatricyclo[22.3.1.0^4,9] octacos-18-ene-2,3,10,16-tetraone]
- increase of blood concentration of IGF-I [3, 6]: 14%
- increase of concentration of IGF-I in the liver [3, 6]: 28%
- increase of blood concentration of IGF-I [3, 7]: 11%
- increase of concentration of IGF-I in the liver [3, 7]: 26%
- IGF-I producing activity (in words) ([3]; liver): express IGF-I producing activity in the liver
- effect on choleresis (in words) [2]: has a choleretic action
